Experimental data from publication PMC10331583, “Control of fibrosis with enhanced safety via asymmetric inhibition of prolyl‐tRNA synthetase 1” (EMBO Molecular Medicine, 2023).
“And” between values parts separate entries of the source, which are not always exact repeats. Identical values can stand only once. “Also recorded” adds a separate entry of the source.

Legend:
[1] = Two‐week repeated‐dose toxicity study, HF versus DWN12088; assay type: in vivo, mice; settings: male, ICR (CrljOri: CD1), mouse, in vivo; oral once daily for 2 weeks, ICR mice
Method: (§1) To compare the in vivo toxicity of HF and DWN12088, all experiments were conducted following the international guidelines on the ethical use of experimental animals and approved by the Institutional Animal Care and Use Committee of KNOTUS (KNOTUS IACUC 21‐KE‐250 and KNOTUS IACUC 21‐KE‐359). ICR (CrljOri: CD1) mice (7‐week‐old, male, obtained from Koatech) were randomized (n = 6 for each group) and then orally administered with the indicated amounts of HF or DWN12088 once daily for 2 weeks. In the high‐dose group, the dose of DWN12088 was reduced from 120 mg/kg to 90 mg/kg from day 6. […] Body weight was measured at day 1, 2, 3, 4, 5, 8, 14, and 15.
(§2) After administering the drugs for 2 weeks, mice were fasted overnight and anesthetized with isoflurane. Blood samples were collected in EDTA‐coated tubes, and the following parameters were determined using a hematology analyzer (ADVIA 2120, SIEMENS, USA); red blood cell, platelet count, hematocrit, white blood cell, red cell distribution width, hemoglobin concentration distribution width, hemoglobin concentration, neutrophil, mean corpuscular volume, lymphocyte, mean cell hemoglobin, monocyte, mean cell hemoglobin concentration, eosinophil, mean platelet volume, basophil, reticulocytes, and large unstained cells.
(§3) For clinical chemistry, the remaining blood samples were incubated in a vacutainer tube with clot activator and then centrifuged to prepare serum. The following parameters were measured in the serum using a chemistry analyzer (7180, Hitachi, Japan) and electrolyte analyzer (AVL 9180, Roche, Switzerland); aspartate aminotransferase, albumin, alanine aminotransferase, albumin/globulin ratio, alkaline phosphatase, blood urea nitrogen, creatine phosphokinase, creatinine, total bilirubin, inorganic phosphorus, glucose, calcium, total cholesterol, sodium, triglyceride, potassium, total protein, and chloride.
(§4) After blood collection, blood was drained by incising the abdominal aorta and posterior vena cava, and all organs of the skin, brain, thoracic cavity, and abdominal cavity were observed. The relative weights of the lung, spleen, liver, heart, kidney, thymus, and testes were calculated by dividing the weight of each organ by the body weight. The experiments were conducted as non‐blind test.

[2] = system: ICR (CrljOri: CD1) mice; test: as above; assay type: in vivo
Method: as §1, §2, §3, §4

[3] = target: T1, PARS1 (Homo sapiens, UniProt P07814); test: In vitro prolylation assay; assay type: biochemical
T1 construct: His‐PARS1 (1001–1,512 aa); His; made in house; host or cells: Escherichia coli
T1 sequence (P07814 1001-1512 limits assumed): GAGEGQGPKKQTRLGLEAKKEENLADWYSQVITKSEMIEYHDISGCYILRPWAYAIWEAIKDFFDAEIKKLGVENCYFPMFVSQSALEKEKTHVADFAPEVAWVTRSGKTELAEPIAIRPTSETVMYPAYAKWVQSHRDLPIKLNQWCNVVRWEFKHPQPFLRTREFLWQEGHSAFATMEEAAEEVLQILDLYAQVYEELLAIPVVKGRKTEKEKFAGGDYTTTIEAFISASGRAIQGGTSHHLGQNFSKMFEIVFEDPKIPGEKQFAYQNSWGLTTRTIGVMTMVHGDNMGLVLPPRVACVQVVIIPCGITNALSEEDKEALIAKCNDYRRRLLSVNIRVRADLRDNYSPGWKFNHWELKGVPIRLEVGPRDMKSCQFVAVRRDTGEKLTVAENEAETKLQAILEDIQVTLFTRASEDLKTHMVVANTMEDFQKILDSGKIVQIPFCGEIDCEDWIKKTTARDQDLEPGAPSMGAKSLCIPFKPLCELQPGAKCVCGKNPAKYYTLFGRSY
Method: The enzyme reaction was initiated by the addition of 100 nM purified His‐PARS1 (1001–1,512 aa). After 5 min, the reaction mixture was quenched on Whatman filter paper presoaked with 5% trichloroacetic acid (TCA). The filter papers were washed three times in 5% TCA for 10 min at 4°C and once in 100% ethanol for 10 min. The filter papers were dried, and radioactivity was quantified using liquid scintillation counter (LSC).
After 1 h, the reaction mixture was quenched on Whatman filter paper presoaked with 5% TCA. The filter papers were washed three times in 5% TCA for 10 min at 4°C and once in 100% ethanol for 10 min. The filter papers were dried, and radioactivity was quantified using LSC.

[4] = system: WI‐26 VA4 cells stably expressing EV (empty vector); test: Collagen ELISA in cells stably expressing EV; settings: for Collagen level, average: average of 4 experiments; for Collagen level, single replicates: replicates of Experiments #1-#4
[5] = 120 ➔ 90 mg/kg (from day 6) oral once daily

O[C@H]1CCCN[C@@H]1CCCn1cnc2c(Cl)c(Cl)ccc21 [DWN12088]
NOAEL at 2 weeks [1]: 60 mg/kg
Hematology ↓ ([2]; 60 mg/kg oral once daily, 2 weeks): HGB, MCHC
Clinical chemistry ↑ [2, 5]: AST, ALT, ALP, GLU, BUN, CRE, IP, K^+
Clinical chemistry ↓ [2, 5]: TP, TCHO
Clinical signs [2, 5]: Inanimation, hypothermia
Hematology ↓ [2, 5]: RBC, HGB, MCHC
Necropsy finding [2, 5]: • Pale liver (1/6) • Thymus atrophy (3/6) • Pale and large kidney (1/6) • Dark red contents in the stomach (1/6)
Organ weight ↑ [2, 5]: Kidney, liver
Organ weight ↓ [2, 5]: Spleen, thymus
Mortality: Terminal sacrifice ([2]; 120 ➔ 90 mg/kg (from day 6) oral once daily, days 2, 5, 6 and 12): Terminal sacrifice: 4/6 (Each animal on days 2, 5, 6, and 12)
reduction in body weight ([2]; all the tested doses): did not show weight loss
NOAEL of DWN12088 relative to that of HF ([2]; male, ICR (CrljOri: CD1), mouse, in vivo, 2 weeks): more than 160 times
IC50 ([3]; IC50, 1 μM Pro, 5 mM ATP): 76.1 nM
IC50 ([3]; IC50, 10 μM Pro, 5 mM ATP): 397 nM
IC50 ([3]; IC50, 100 μM Pro, 2.5 mM ATP): 5940 nM
IC50 ([3]; IC50, 100 μM Pro, 5 mM ATP): 6460 nM
IC50 ([3]; IC50, 100 μM Pro, 10 mM ATP): 3000 nM
mode of PARS1 inhibition ([3]; IC50 at different proline and ATP concentrations): proline‐competitive and ATP‐uncompetitive; also recorded: competitive inhibitor for proline, and a mixed or uncompetitive inhibitor for ATP
CC50/collagen IC50 ([4]; EV cells): 12.55
Relative (CC50)/(collagen IC50) ([4]; EV cells (reference)): 1.00
IC50 ([4]; Homo sapiens, WI26VA4, read-out: IC50, collagen level): 1910 nM
Collagen level, average ([4]; WI-26 VA4 EV, 30 nM): 106.29 % of control
Collagen level, single replicates ([4]; WI-26 VA4 EV, 30 nM): 103.80 % of control and 93.68 % of control and 118.18 % of control and 101.32 % of control and 113.71 % of control and 100.49 % of control and 110.94 % of control and 125.36 % of control and 99.68 % of control and 91.65 % of control and 118.14 % of control and 98.48 % of control
Collagen level, average ([4]; WI-26 VA4 EV, 100 nM): 97.93 % of control
Collagen level, single replicates ([4]; WI-26 VA4 EV, 100 nM): 104.52 % of control and 100.73 % of control and 92.07 % of control and 94.49 % of control and 97.76 % of control and 98.74 % of control and 108.25 % of control and 102.28 % of control and 98.65 % of control and 91.35 % of control and 85.38 % of control and 100.91 % of control
Collagen level, average ([4]; WI-26 VA4 EV, 300 nM): 81.48 % of control
Collagen level, single replicates ([4]; WI-26 VA4 EV, 300 nM): 91.09 % of control and 79.16 % of control and 74.69 % of control and 82.43 % of control and 80.75 % of control and 70.25 % of control and 88.16 % of control and 89.14 % of control and 75.64 % of control and 84.11 % of control and 76.95 % of control and 85.36 % of control
Collagen level, average ([4]; WI-26 VA4 EV, 1000 nM): 68.39 % of control
Collagen level, single replicates ([4]; WI-26 VA4 EV, 1000 nM): 76.13 % of control and 68.91 % of control and 67.97 % of control and 76.57 % of control and 67.70 % of control and 49.07 % of control and 76.54 % of control and 74.06 % of control and 46.15 % of control and 70.23 % of control and 69.64 % of control and 77.72 % of control
Collagen level, average ([4]; WI-26 VA4 EV, 3000 nM): 47.79 % of control
Collagen level, single replicates ([4]; WI-26 VA4 EV, 3000 nM): 46.50 % of control and 50.68 % of control and 52.48 % of control and 46.12 % of control and 48.12 % of control and 44.47 % of control and 46.33 % of control and 45.40 % of control and 47.63 % of control and 51.25 % of control and 49.30 % of control and 45.24 % of control
Collagen level, average ([4]; WI-26 VA4 EV, 10000 nM): 13.92 % of control
Collagen level, single replicates ([4]; WI-26 VA4 EV, 10000 nM): 13.28 % of control and 17.27 % of control and 16.23 % of control and 13.89 % of control and 12.05 % of control and 10.58 % of control and 12.31 % of control and 11.80 % of control and 11.03 % of control and 17.85 % of control and 17.12 % of control and 13.65 % of control
Collagen level, average ([4]; WI-26 VA4 EV, 30000 nM): 4.05 % of control
Collagen level, single replicates ([4]; WI-26 VA4 EV, 30000 nM): 4.24 % of control and 4.41 % of control and 4.74 % of control and 6.13 % of control and 2.65 % of control and 2.97 % of control and 3.41 % of control and 2.56 % of control and 2.84 % of control and 4.90 % of control and 3.97 % of control and 5.81 % of control
Collagen level, average ([4]; WI-26 VA4 EV, 100000 nM): 3.50 % of control
Collagen level, single replicates ([4]; WI-26 VA4 EV, 100000 nM): 2.77 % of control and 4.80 % of control and 4.00 % of control and 3.82 % of control and 3.27 % of control and 2.48 % of control and 2.45 % of control and 2.57 % of control and 2.65 % of control and 4.71 % of control and 3.89 % of control and 4.63 % of control
Collagen level, average ([4]; WI-26 VA4 EV, 300000 nM): 2.44 % of control
Collagen level, single replicates ([4]; WI-26 VA4 EV, 300000 nM): 2.49 % of control and 2.31 % of control and 2.89 % of control and 2.54 % of control
HillSlope, collagen level ([4]; WI-26 VA4 EV, four-parameter fit): -0.8641
LogIC50, collagen level ([4]; WI-26 VA4 EV, log of concentration in nM, four-parameter fit): 3.281
